Laboratory results reported in ChEMBL document CHEMBL3885861, “Open TG-GATES”.

Species: Rattus norvegicus
Assay: Open TG-GATES - Regimen: Daily Repeat
Assay type: toxicity, organism-based, Sprague-Dawley
Design: regimen Daily Repeat, gender Male, age 6 weeks
Conditions: in vivo, po, 60 mg/kg, route gavage, dose level Middle; for APTT / Bas / Eos / Fbg / Hb / Ht / Lym / MCH / MCHC / MCV / Mono / Neu / PT / Plat / RBC / Ret / WBC: tissue Blood
[1] = 72 h, tissue Kidney, time 3 day
[2] = 72 h, tissue Plasma, time 3 day

CC(CN1c2ccccc2Sc2ccccc21)N(C)C (stereo unspecified) [PROMETHAZINE]
TERMINAL_BW (72 h, time 3 day): 228.9 g
APTT (72 h, time 3 day): 22.4 s
Bas (72 h, time 3 day): 0%
Eos (72 h, time 3 day): 0.8%
Fbg (72 h, time 3 day): 300.8 mg/dL
Hb (72 h, time 3 day): 13.3 g/dL
Ht (72 h, time 3 day): 40.1%
Lym (72 h, time 3 day): 78.8%
MCH (72 h, time 3 day): 20.8 pg
MCHC (72 h, time 3 day): 33.1%
MCV (72 h, time 3 day): 62.8 fL
Mono (72 h, time 3 day): 2.4%
Neu (72 h, time 3 day): 17%
PT (72 h, time 3 day): 16.1 s
Plat (72 h, time 3 day): 121.6 x10_4/uL
RBC (72 h, time 3 day): 639.4 x10_4/ul
Ret (72 h, time 3 day): 6.1%
WBC (72 h, time 3 day): 113.7 x10_2/uL
KIDNEY_L [1]: 1 g
KIDNEY_R [1]: 1 g
KIDNEY_TOTAL [1]: 2 g
LIVER (72 h, tissue Liver, time 3 day): 11.7 g
A/G [2]: 1.3
ALP [2]: 1638.6 IU/L
ALT [2]: 45.8 IU/L
AST [2]: 74.6 IU/L
BUN [2]: 16.8 mg/dL
CRE [2]: 0.2 mg/dL
Ca [2]: 10.9 mg/dL
Cl [2]: 106.6 meq/L
DBIL [2]: 0.002 mg/dL
GLC [2]: 184.8 mg/dL
IP [2]: 7 mg/dL
K [2]: 4.3 meq/L
LDH [2]: 158.2 IU/L
Na [2]: 142 meq/L
PL [2]: 140.8 mg/dL
RALB [2]: 3.1 g/dL
TBIL [2]: 0.008 mg/dL
TC [2]: 73.2 mg/dL
TG [2]: 122.8 mg/dL
TP [2]: 5.5 g/dL
gamma-GTP [2]: 1.4 IU/L
TERMINAL_BW ([…], time 7 day): 255.8 g
TERMINAL_BW ([…], time 14 day): 294.2 g
TERMINAL_BW ([…], time 28 day): 366.5 g
APTT ([…], time 7 day): 23.8 s
Bas ([…], time 7 day): 0%
Eos ([…], time 7 day): 0.8%
Fbg ([…], time 7 day): 293.6 mg/dL
Hb ([…], time 7 day): 13.6 g/dL
Ht ([…], time 7 day): 41.2%
Lym ([…], time 7 day): 80.4%
MCH ([…], time 7 day): 20.2 pg
MCHC ([…], time 7 day): 33.1%
MCV ([…], time 7 day): 61.1 fL
Mono ([…], time 7 day): 2.8%
Neu ([…], time 7 day): 15.2%
PT ([…], time 7 day): 15.8 s
Plat ([…], time 7 day): 107.7 x10_4/uL
RBC ([…], time 7 day): 674.2 x10_4/ul
Ret ([…], time 7 day): 5.1%
WBC ([…], time 7 day): 158 x10_2/uL
APTT ([…], time 14 day): 25 s
Bas ([…], time 14 day): 0%
Eos ([…], time 14 day): 1%
Fbg ([…], time 14 day): 312.6 mg/dL
Hb ([…], time 14 day): 14.2 g/dL
Ht ([…], time 14 day): 41.7%
Lym ([…], time 14 day): 77.8%
MCH ([…], time 14 day): 20.1 pg
MCHC ([…], time 14 day): 34%
MCV ([…], time 14 day): 59.1 fL
Mono ([…], time 14 day): 2%
Neu ([…], time 14 day): 18.4%
PT ([…], time 14 day): 15.6 s
Plat ([…], time 14 day): 111.3 x10_4/uL
RBC ([…], time 14 day): 706.4 x10_4/ul
Ret ([…], time 14 day): 4.8%
WBC ([…], time 14 day): 120.7 x10_2/uL
APTT ([…], time 28 day): 25.7 s
Bas ([…], time 28 day): 0%
Eos ([…], time 28 day): 1%
Fbg ([…], time 28 day): 303.6 mg/dL
Hb ([…], time 28 day): 15.3 g/dL
Ht ([…], time 28 day): 43.8%
